Experimental data from patent US7030273B1, “Compounds with physiological cooling effect” (Qaroma, Inc, priority 2005, dated 2006).

Key:
[1] = tested on: cold receptors of the skin and mucous membranes of the human body; experiment: Panel test of physiological cooling ability against WS-23, solutions applied orally; assay type: in vivo; design: key: + means the compound has equal or stronger cooling effect than WS-23; settings: 2000 ppm solution applied orally; panel of 5 people
Description: The following testing procedure is aimed at determining physiological cooling ability of testing compounds with regard to WS-23 ([…]). The tests are carried out on a selected panel of 5 people. The present test procedure is done on a statistical basis because sensitivity to cooling compounds will vary not only from compound to compound and from one part of the body to another, but from one individual to another as well. Tests of this nature are commonly used on the testing and quality control of the organoleptic properties, e.g. taste, smell of organic and inorganic food products.
1 g of each testing compound is dissolved in 99 g denatured ethanol to form 1% solution. 2 g such solution is then diluted with 8 g deionized water to form 2000 ppm solution. The solutions are then applied orally to determine the cooling effect.
To test the cooling activity of the compounds in this invention, the compounds prepared in this invention are tested repeatedly by the 5 selected panelists and the results are compared with WS-23.

mouth = experiment: Mint candies containing the compound, cooling effect in the mouth; assay type: in vivo, human; settings: 0.02% in icing sugar candies
Description: Icing sugar was mixed with small amount of water at 50° C. to form a paste. 0.02% Compound 5 in this invention was added and stirred. Cooled to room temperature, the mixture hardened and was broken into smaller pieces.

tongue = experiment: Toothpicks soaked in compound solution, put on tongue; assay type: in vivo, human; settings: toothpick tips soaked in 5% solution in denatured ethanol, dried
Description: Toothpick tips were soaked in 5% solution of Compound 3 in this invention in denatured ethanol for long enough to have enough deposition of the compound. The picks were then dried.

Row | SMILES | melting point [°C] | Cooling ability compared to WS-23 [1] | cooling effect in the mouth (mouth) | cooling sensation on tongue (tongue)
1 | CCCCOCCCNC(=O)C(C)(C(C)C)C(C)C [Compound 8, N-(3-butoxypropyl)-2,3-dimethyl-2-isopropylbutyramide] | 40 | + |  | 
2 | COCCCNC(=O)C(C)(C(C)C)C(C)C [Compound 5, N-(3-methoxypropyl)-2,3-dimethyl-2-isopropylbutyramide] | 10 | + | marked cooling effect in the mouth | 
3 | CCOCCNC(=O)C(C)(C(C)C)C(C)C [Compound 3, N-(2-ethoxyethyl)-2,3-dimethyl-2-isopropylbutyramide] |  | + |  | pronounced cooling sensation
4 | CC(C)OCCCNC(=O)C(C)(C(C)C)C(C)C [Compound 7, N-(3-isopropoxypropyl)-2,3-dimethyl-2-isopropylbutyramide] | 32 | + |  | 
5 | CCOCCCNC(=O)C(C)(C(C)C)C(C)C [Compound 6, N-(3-ethoxypropyl)-2,3-dimethyl-2-isopropylbutyramide] | 30 | + |  | 
